As usually defined, the melting point is the temperature of the solid-liquid transition.

Where only a bound is given, the exact number is not on record here.

Data set [1] has as its system SMN2 minigene mRNA (SMN2-A minigene) in HEK293H cells. Put plainly: SMN2 minigene mRNA splicing RT-qPCR assay in cultured cells. Format: cell-based, human. Particulars: Homo sapiens, HEK293-H; concentration increasing full length SMN2 mRNA 1.5-fold relative to vehicle-treated cells; HEK293H cells with SMN2-A minigene, 24 hours, 7-point concentration data; read-out: EC1.5x for production of full length SMN2 mRNA. The procedure, abridged:
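EC1.5× = concentration raising full-length SMN2 minigene mRNA 1.5-fold over vehicle, from 7-point curves in duplicate. Stably transfected HEK293H cells exposed 24 h at 37 °C; lysates assayed by multiplex RT-qPCR, minigene FL signal normalized to GAPDH via modified ΔΔCt.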
For orientation: Real-time PCR tracks product formation cycle by cycle.

The test system of data set [2] is Smn protein in SMA patient fibroblast cells (GM03813). Put plainly: Smn protein assay in cultured cells (SMN HTRF). Format: cell-based, human. Particulars: SMA patient fibroblast cells, 48 hours; for EC1.5x for Smn protein expression: 7-point concentration curve, SMN HTRF, concentration producing 1.5 times Smn protein vs DMSO vehicle control; for maximum fold (Fold) increase of Smn protein: 7-point concentration data, fold relative to vehicle control. The procedure, abridged: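 Smn protein quantified by HTRF with anti-SMN d2/kryptate pair, 665/620 nm ratio blank-corrected, in RIPA lysates of GM03813 fibroblasts after 48 h compound exposure (7 concentrations, 3.16-fold steps, triplicates). Values: concentration producing 1.5× vehicle Smn level, and maximal fold increase.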
On the technique in general: In TR-FRET formats the signal depends on donor and acceptor labels being close together.

In the case of `CCc1nc(C)cn2nc(-c3cc(=O)n4cc(N5CCN(CCCF)[C@H](C)C5)ccc4n3)cc12` [Compound 667, 2-(4-ethyl-6-methylpyrazolo[1,5-a]pyrazin-2-yl)-7-[(3R)-4-(3-fluoropropyl)-3-methylpiperazin-1-yl]-4H-pyrido[1,2-a]pyrimidin-4-one], the melting point lay within 244 to 246 °C. Also, the EC (1.5-fold increase) in data set [1] was below 0.1 µM. Also, in data set [2], the “EC1.5x for Smn protein expression” value is given as “**** (an EC1.5x≤0.3 μM is indicated by four stars (****))” and the “maximum fold (Fold) increase of Smn protein” value (shortened to “maximum fold (Fold) increase”) is “***** (a fold increase >1.65 is indicated by five stars (*****))”.

In turn, `C[C@@H]1CN(c2ccc3nc(-c4ccc5c(c4)OCCO5)cc(=O)n3c2)CCN1` [Compound 35, 2-(2,3-dihydro-1,4-benzodioxin-6-yl)-7-[(3R)-3-methylpiperazin-1-yl]-4H-pyrido[1,2-a]pyrimidin-4-one] registered a melting point of 212 to 214 °C. Also, the EC (1.5-fold increase) in data set [1] was in the range of 3 to 30 µM. The “maximum fold (Fold) increase” value in data set [2] was “* (A maximum fold increase of ≤1.2 is indicated by one star (*))”.

Molecule `CCc1nc(C)cn2nc(-c3cc(=O)n4cc(N5CCCN(C)CC5)ccc4n3)cc12` [Compound 636, 2-(4-ethyl-6-methylpyrazolo[1,5-a]pyrazin-2-yl)-7-(4-methyl-1,4-diazepan-1-yl)-4H-pyrido[1,2-a]pyrimidin-4-one] yielded a melting point of 175 to 180 °C. In addition, the EC (1.5-fold increase) in data set [1] is below 0.1 µM. In data set [2], the “EC1.5x for Smn protein expression” value is recorded as “**** (an EC1.5x≤0.3 μM is indicated by four stars (****))” and the “maximum fold (Fold) increase” value is listed as “***** (a fold increase >1.65 is indicated by five stars (*****))”.

In turn, `COc1cc(F)c(-c2cc(=O)n3cc(N4CCN[C@@H](C)C4)ccc3n2)cc1OC` [Compound 65, 2-(2-fluoro-4,5-dimethoxyphenyl)-7-[(3S)-3-methylpiperazin-1-yl]-4H-pyrido[1,2-a]pyrimidin-4-one] had a melting point of 167 to 170 °C. The EC (1.5-fold increase) in data set [1] lay within 3 to 30 µM. Moreover, in data set [2], the “maximum fold (Fold) increase” value is “** (a fold increase between >1.2 and ≤1.35 is indicated by two stars (**))”.

`Cc1nc2ccc(-c3cc(=O)n4cc(N5C[C@@H](C)N[C@@H](C)C5)ccc4n3)cc2o1` [Compound 172, 7-[(3R,5S)-3,5-dimethylpiperazin-1-yl]-2-(2-methyl-1,3-benzoxazol-6-yl)-4H-pyrido[1,2-a]pyrimidin-4-one]: the melting point lay within 233 to 235 °C. Moreover, the EC (1.5-fold increase) in data set [1] is below 0.1 µM. Besides, in data set [2], the “EC1.5x for Smn protein expression” value is given as “**** (an EC1.5x≤0.3 μM is indicated by four stars (****))” and the “maximum fold (Fold) increase” value is recorded as “***** (a fold increase >1.65 is indicated by five stars (*****))”.

For `CCc1nc(C)cn2nc(-c3cc(=O)n4cc(C5CCN(C)CC5)ncc4n3)cc12` [Compound 654, 2-(4-ethyl-6-methylpyrazolo[1,5-a]pyrazin-2-yl)-7-(1-methylpiperidin-4-yl)-4H-pyrazino[1,2-a]pyrimidin-4-one], the melting point fell in the range of 261 to 263 °C. Further, in data set [1], the EC (1.5-fold increase) is below 0.1 µM. In addition, in data set [2], the “EC1.5x for Smn protein expression” value is “**** (an EC1.5x≤0.3 μM is indicated by four stars (****))” and the “maximum fold (Fold) increase” value was “***** (a fold increase >1.65 is indicated by five stars (*****))”.

For `CCc1nc(C)cn2nc(-c3cc(=O)n4cc(C5CCN(CCF)CC5)ccc4n3)cc12` [Compound 668, 2-(4-ethyl-6-methylpyrazolo[1,5-a]pyrazin-2-yl)-7-[1-(2-fluoroethyl)piperidin-4-yl]-4H-pyrido[1,2-a]pyrimidin-4-one], the melting point lay within 206 to 208 °C. The EC (1.5-fold increase) in data set [1] was below 0.1 µM. In addition, in data set [2], the “EC1.5x for Smn protein expression” value is listed as “**** (an EC1.5x≤0.3 μM is indicated by four stars (****))” and the “maximum fold (Fold) increase” value was “***** (a fold increase >1.65 is indicated by five stars (*****))”.

`COc1ccc(-c2cc(=O)n3cc(N4CCN[C@@H](C)C4)ccc3c2)cc1F` [Compound 104, 2-(3-fluoro-4-methoxyphenyl)-7-[(3S)-3-methylpiperazin-1-yl]-4H-quinolizin-4-one] had a melting point of 188 to 192 °C. Also, the EC (1.5-fold increase) in data set [1] lay within 0.3 to 1 µM. Also, in data set [2], the “maximum fold (Fold) increase” value was “*** (a fold increase between >1.35 and ≤1.5 is indicated by three stars (***))”.

`COc1ccc(-c2cc(=O)n3cc(C4CCN(CCO)CC4)ccc3n2)cc1OC` [Compound 214, 2-(3,4-dimethoxyphenyl)-7-[1-(2-hydroxyethyl)piperidin-4-yl]-4H-pyrido[1,2-a]pyrimidin-4-one] came in with a melting point of 145 to 148 °C. Besides, in data set [1], the EC (1.5-fold increase) fell in the range of 0.3 to 1 µM. In data set [2], the “EC1.5x for Smn protein expression” value is “** (an EC1.5× between >1 μM and ≤3 μM is indicated by two stars (**))”; the “maximum fold (Fold) increase” value is “**** (a fold increase between >1.5 and ≤1.65 is indicated by four stars (****))”.

In turn, `Cc1nc2cc(-c3cc(=O)n4cc(N5CCNCC5)ccc4n3)ccc2o1` [Compound 155, 2-(2-methyl-1,3-benzoxazol-5-yl)-7-(piperazin-1-yl)-4H-pyrido[1,2-a]pyrimidin-4-one] yielded a melting point of 178 to 183 °C. In addition, in data set [1], the EC (1.5-fold increase) is 0.1 to 0.3 µM. In data set [2], the “maximum fold (Fold) increase” value was “** (a fold increase between >1.2 and ≤1.35 is indicated by two stars (**))”.

`Cc1cn2nc(-c3cc(=O)n4cc(N5CC(N6CCCCC6)C5)ccc4n3)cc2c(C)n1` [Compound 765, 2-(4,6-dimethylpyrazolo[1,5-a]pyrazin-2-yl)-7-[3-(piperidin-1-yl)azetidin-1-yl]-4H-pyrido[1,2-a]pyrimidin-4-one] came in with a melting point of 220 to 223 °C. Besides, the EC (1.5-fold increase) in data set [1] lay within 1 to 3 µM. Further, in data set [2], the “EC1.5x for Smn protein expression” value was “** (an EC1.5× between >1 μM and ≤3 μM is indicated by two stars (**))”; the “maximum fold (Fold) increase” value is “**** (a fold increase between >1.5 and ≤1.65 is indicated by four stars (****))”.

The molecule `COc1ccc(-c2cc(=O)n3cc(N4C[C@H]5CN(C)C[C@H]5C4)ccc3n2)cc1F` [Compound 213, 2-(3-fluoro-4-methoxyphenyl)-7-[(3aR,6aS)-5-methylhexahydropyrrolo[3,4-c]pyrrol-2(1H)-yl]-4H-pyrido[1,2-a]pyrimidin-4-one] came in with a melting point of 204 to 210 °C. In data set [1], the EC (1.5-fold increase) fell in the range of 0.1 to 0.3 µM. In addition, in data set [2], the “EC1.5x for Smn protein expression” value is reported as “**** (an EC1.5x≤0.3 μM is indicated by four stars (****))”; the “maximum fold (Fold) increase” value is “*** (a fold increase between >1.35 and ≤1.5 is indicated by three stars (***))”.

In the case of `Cc1cn2nc(-c3cc(=O)n4cc(N5CCN6CCC[C@H]6C5)ccc4n3)cc2c(C)n1` [Compound 336, 2-(4,6-dimethylpyrazolo[1,5-a]pyrazin-2-yl)-7-[(8aS)-hexahydropyrrolo[1,2-a]pyrazin-2(1H)-yl]-4H-pyrido[1,2-a]pyrimidin-4-one], the melting point lay within 215 to 218 °C. For the same molecule, the EC (1.5-fold increase) in data set [1] was 0.1 to 0.3 µM. Moreover, in data set [2], the “EC1.5x for Smn protein expression” value is “**** (an EC1.5x≤0.3 μM is indicated by four stars (****))” and the “maximum fold (Fold) increase” value is given as “***** (a fold increase >1.65 is indicated by five stars (*****))”.

Regarding `CCc1cc(-c2cc(=O)n3cc(N4CCN(C5CCC5)CC4)ccc3n2)cn2cc(C)nc12` [Compound 648, 7-(4-cyclobutylpiperazin-1-yl)-2-(8-ethyl-2-methylimidazo[1,2-a]pyridin-6-yl)-4H-pyrido[1,2-a]pyrimidin-4-one], the melting point was in the range of 274 to 279 °C. In addition, the EC (1.5-fold increase) in data set [1] was below 0.1 µM. In addition, in data set [2], the “EC1.5x for Smn protein expression” value was “**** (an EC1.5x≤0.3 μM is indicated by four stars (****))” and the “maximum fold (Fold) increase” value is “***** (a fold increase >1.65 is indicated by five stars (*****))”.

`Cc1nc2ccc(-c3cc(=O)n4cc(N5CCN[C@@H](C)C5)ccc4c3)cc2o1` [Cpd 322, 2-(2-methyl-1,3-benzoxazol-6-yl)-7-[(3S)-3-methylpiperazin-1-yl]-4H-quinolizin-4-one] had a melting point of 115 to 117 °C. For the same molecule, the EC (1.5-fold increase) in data set [1] is below 0.1 µM. In data set [2], the “EC1.5x for Smn protein expression” value was “*** (an EC1.5× between >0.3 μM and ≤1 μM is indicated by three stars (***))”; the “maximum fold (Fold) increase” value is “**** (a fold increase between >1.5 and ≤1.65 is indicated by four stars (****))”.

`CN1CCC(c2cn3c(=O)cc(-c4ccc5nn(C)cc5c4)nc3cn2)CC1` [Compound 567, 2-(2-methyl-2H-indazol-5-yl)-7-(1-methylpiperidin-4-yl)-4H-pyrazino[1,2-a]pyrimidin-4-one] displayed a melting point of 275 to 277 °C. For the same molecule, in data set [1], the EC (1.5-fold increase) was in the range of 0.1 to 0.3 µM. In data set [2], the “EC1.5x for Smn protein expression” value is “*** (an EC1.5× between >0.3 μM and ≤1 μM is indicated by three stars (***))”; the “maximum fold (Fold) increase” value was “**** (a fold increase between >1.5 and ≤1.65 is indicated by four stars (****))”.

`COc1ccc(-c2cc(=O)n3cc(N4CCNCC4)c(C)cc3n2)cc1OC` [Compound 360, 2-(3,4-dimethoxyphenyl)-8-methyl-7-(piperazin-1-yl)-4H-pyrido[1,2-a]pyrimidin-4-one] displayed a melting point of 161 to 169 °C. In addition, the EC (1.5-fold increase) in data set [1] lay in the range of 1 to 3 µM. Besides, the “maximum fold (Fold) increase” value in data set [2] is given as “* (A maximum fold increase of ≤1.2 is indicated by one star (*))”.

The values are drawn from patent US11753407B2, “Compounds for treating spinal muscular atrophy” (PTC Therapeutics, Inc., priority 2012, dated 2023).
